Columns and labels:
Format in all cases: cell-based
[1] = system: Acinetobacter baumannii 9010; test: First screening, agar dilution MIC
Method: (§1) Clinical bacterial isolates from human samples collected in Lille (France) and some collection strains were used. The first screening step on pathogenic bacteria was carried out with crude hydro-alcoholic extracts of different hop parts (Table 1). The second screening was performed using sub-extracts of cones on Gram-positive bacteria, including methicillin-sensitive Staphylococcus aureus (MSSA) and methicillin-resistant Staphylococcus aureus […] (Table 2). These tests were carried out on Petri dishes, Mueller-Hinton Agar (MHA) (Oxoid, UK) was mixed with the plant extract solution in MeOH at 5% (solvent control: 5% MeOH). Final extract concentrations in Petri dishes ranged from 1250 to 4.9 µg/mL. A multi-headed inoculator allowed spotting bacterial strains at 10^5 CFU/mL in cysteinated Ringer (CR) solution (Merck®, France). Minimal Inhibitory Concentrations (MICs) were visually determined after 24 h of incubation at 37 °C.

[2] = system: Acinetobacter baumannii 9011; test: First screening, agar dilution MIC
Method: as §1

[3] = system: Citrobacter freundii 11041; test: First screening, agar dilution MIC
Method: as §1

[4] = system: Citrobacter freundii 11042; test: First screening, agar dilution MIC
Method: as §1

Corynebacterium T25-17 [5] = test: First screening, agar dilution MIC
Method: as §1

[6] = system: Enterobacter cloacae 11050; test: First screening, agar dilution MIC
Method: as §1

[7] = system: Enterobacter cloacae 11051; test: First screening, agar dilution MIC
Method: as §1

[8] = system: Enterobacter cloacae 11053; test: First screening, agar dilution MIC
Method: as §1

[9] = system: Enterococcus faecalis C159-6; test: First screening, agar dilution MIC
Method: as §1

Enterococcus sp. 8153 = test: First screening, agar dilution MIC
Method: as §1

Escherichia coli 8138 = test: First screening, agar dilution MIC
Method: as §1

Escherichia coli 8157 = test: First screening, agar dilution MIC
Method: as §1

[10] = system: Escherichia coli ATCC 25922; test: First screening, agar dilution MIC
Method: as §1

[11] = system: Klebsiella pneumoniae 11016; test: First screening, agar dilution MIC
Method: as §1

[12] = system: Klebsiella pneumoniae 11017; test: First screening, agar dilution MIC
Method: as §1

[13] = system: Mycobacterium smegmatis 5003; test: First screening, agar dilution MIC
Method: as §1

Proteus mirabilis 11060 = test: First screening, agar dilution MIC
Method: as §1

[14] = system: Providencia stuartii 11038; test: First screening, agar dilution MIC
Method: as §1

[15] = system: Pseudomonas aeruginosa 8131; test: First screening, agar dilution MIC
Method: as §1

[16] = system: Pseudomonas aeruginosa ATCC 27583; test: First screening, agar dilution MIC
Method: as §1

Salmonella sp. 11033 = test: First screening, agar dilution MIC
Method: as §1

[17] = system: Serratia marcescens 11056; test: First screening, agar dilution MIC
Method: as §1

[18] = system: Serratia marcescens 11057; test: First screening, agar dilution MIC
Method: as §1

[19] = system: Staphylococcus aureus 8146; test: First screening, agar dilution MIC
Method: as §1

[20] = system: Staphylococcus aureus 8147; test: First screening, agar dilution MIC
Method: as §1

[21] = system: Staphylococcus epidermidis 10282; test: First screening, agar dilution MIC
Method: as §1

[22] = system: Staphylococcus epidermidis 5001; test: First screening, agar dilution MIC
Method: as §1

[23] = system: Staphylococcus lugdunensis T26A3; test: First screening, agar dilution MIC
Method: as §1

[24] = system: Staphylococcus warneri T12A12; test: First screening, agar dilution MIC
Method: as §1

[25] = system: Stenotrophomonas maltophilia; test: First screening, agar dilution MIC
Method: as §1

[26] = system: Streptococcus agalactiae T25-7; test: First screening, agar dilution MIC
Method: as §1

[27] = system: Streptococcus agalactiae T53C2; test: First screening, agar dilution MIC
Method: as §1

[28] = system: Streptococcus dysgalactiae T46C14; test: First screening, agar dilution MIC
Method: as §1

Corynebacterium T25-17 [29] = test: Second screening, agar dilution MIC; conditions: Table 2
Method: as §1

[30] = system: Enterococcus faecalis T26-B7; test: Second screening, agar dilution MIC
Method: as §1

[31] = system: Enterococcus faecalis T34-2; test: Second screening, agar dilution MIC
Method: as §1

[32] = system: Enterococcus faecalis T37A4; test: Second screening, agar dilution MIC
Method: as §1

[33] = system: Enterococcus faecalis T39-C11; test: Second screening, agar dilution MIC
Method: as §1

[34] = system: Staphylococcus aureus 8147; test: Second screening, agar dilution MIC; conditions: Table 2
Method: as §1

[35] = system: Staphylococcus aureus CIP 224; test: Second screening, agar dilution MIC
Method: as §1

[36] = system: Staphylococcus aureus T1.1; test: Second screening, agar dilution MIC
Method: as §1

[37] = system: Staphylococcus aureus T25.10; test: Second screening, agar dilution MIC
Method: as §1

[38] = system: Staphylococcus aureus T25.3; test: Second screening, agar dilution MIC
Method: as §1

[39] = system: Staphylococcus aureus T25.9; test: Second screening, agar dilution MIC
Method: as §1

[40] = system: Staphylococcus aureus T26A4; test: Second screening, agar dilution MIC
Method: as §1

[41] = system: Staphylococcus aureus T28.1; test: Second screening, agar dilution MIC
Method: as §1

[42] = system: Staphylococcus aureus T36B1; test: Second screening, agar dilution MIC
Method: as §1

[43] = system: Staphylococcus aureus T47A12; test: Second screening, agar dilution MIC
Method: as §1

[44] = system: Staphylococcus aureus T6.7; test: Second screening, agar dilution MIC
Method: as §1

[45] = system: Staphylococcus epidermidis 5001; test: Second screening, agar dilution MIC; conditions: Table 2
Method: as §1

[46] = system: Staphylococcus lugdunensis T26A3; test: Second screening, agar dilution MIC; conditions: Table 2
Method: as §1

[47] = system: Staphylococcus pettenkoferi T3.3; test: Second screening, agar dilution MIC
Method: as §1

[48] = system: Staphylococcus saprophyticus 08237; test: Second screening, agar dilution MIC
Method: as §1

[49] = system: Streptococcus agalactiae 13225; test: Second screening, agar dilution MIC
Method: as §1

[50] = system: Streptococcus agalactiae 13226; test: Second screening, agar dilution MIC
Method: as §1

[51] = system: Streptococcus agalactiae T25.7; test: Second screening, agar dilution MIC
Method: as §1

[52] = system: Streptococcus agalactiae T38.2; test: Second screening, agar dilution MIC
Method: as §1

[53] = system: Streptococcus agalactiae T40A2; test: Second screening, agar dilution MIC
Method: as §1

How did the “Susceptibility to AMX” value [1] turn out when `CC1(C)S[C@@H]2[C@H](NC(=O)[C@H](N)c3ccc(O)cc3)C(=O)N2[C@H]1C(=O)O` [AMX, Amoxicillin] was run?
Its value is “R (R > 16)”.

What about the “Susceptibility to AMX” value [2] of the same compound?
The value was “R (R > 16)”.

And the “Susceptibility to AMX” value [3]?
The value was “S (Amoxicillin (AMX) S ≤ 4)”.

And the “Susceptibility to AMX” value [4]?
Its value is “R (R > 16)”.

What about the “Susceptibility to AMX” value (Corynebacterium T25-17 [5]) of the same compound?
Its value is “S (Amoxicillin (AMX) S ≤ 4)”.

And the “Susceptibility to AMX” value [6]?
The value was “R (R > 16)”.

What about the “Susceptibility to AMX” value [7] of the same compound?
Its value is “R (R > 16)”.

What about the “Susceptibility to AMX” value [8] of the same compound?
The value was “R (R > 16)”.

And the “Susceptibility to AMX” value [9]?
The value was “R (R > 16)”.

And the “Susceptibility to AMX” value (Enterococcus sp. 8153)?
Its value is “S (Amoxicillin (AMX) S ≤ 4)”.

What about the “Susceptibility to AMX” value (Escherichia coli 8138) of the same compound?
Its value is “R (R > 16)”.

What about the “Susceptibility to AMX” value (Escherichia coli 8157) of the same compound?
The value was “R (R > 16)”.

And the “Susceptibility to AMX” value [10]?
Its value is “I”.

And the “Susceptibility to AMX” value [11]?
Its value is “R (R > 16)”.

And the “Susceptibility to AMX” value [12]?
The value was “R (R > 16)”.

What about the “Susceptibility to AMX” value [13] of the same compound?
Its value is “S (Amoxicillin (AMX) S ≤ 4)”.

What about the “Susceptibility to AMX” value (Proteus mirabilis 11060) of the same compound?
The value was “R (R > 16)”.

And the “Susceptibility to AMX” value [14]?
Its value is “S (Amoxicillin (AMX) S ≤ 4)”.

And the “Susceptibility to AMX” value [15]?
The value was “R (R > 16)”.

What about the “Susceptibility to AMX” value [16] of the same compound?
Its value is “R (R > 16)”.

And the “Susceptibility to AMX” value (Salmonella sp. 11033)?
The value was “R (R > 16)”.

What about the “Susceptibility to AMX” value [17] of the same compound?
The value was “R (R > 16)”.

And the “Susceptibility to AMX” value [18]?
Its value is “R (R > 16)”.

And the “Susceptibility to AMX” value [19]?
Its value is “I”.

What about the “Susceptibility to AMX” value [20] of the same compound?
Its value is “S (Amoxicillin (AMX) S ≤ 4)”.

What about the “Susceptibility to AMX” value [21] of the same compound?
Its value is “S (Amoxicillin (AMX) S ≤ 4)”.

And the “Susceptibility to AMX” value [22]?
Its value is “S (Amoxicillin (AMX) S ≤ 4)”.

And the “Susceptibility to AMX” value [23]?
The value was “S (Amoxicillin (AMX) S ≤ 4)”.

What about the “Susceptibility to AMX” value [24] of the same compound?
The value was “S (Amoxicillin (AMX) S ≤ 4)”.

What about the “Susceptibility to AMX” value [25] of the same compound?
Its value is “R (R > 16)”.

And the “Susceptibility to AMX” value [26]?
Its value is “S (Amoxicillin (AMX) S ≤ 4)”.

And the “Susceptibility to AMX” value [27]?
The value was “S (Amoxicillin (AMX) S ≤ 4)”.

What about the “Susceptibility to AMX” value [28] of the same compound?
Its value is “S (Amoxicillin (AMX) S ≤ 4)”.

And the “Susceptibility to AMX” value (Corynebacterium T25-17 [29])?
Its value is “S (Amoxicillin (AMX) S ≤ 4)”.

And the “Susceptibility to AMX” value [30]?
Its value is “S (Amoxicillin (AMX) S ≤ 4)”.

What about the “Susceptibility to AMX” value [31] of the same compound?
Its value is “S (Amoxicillin (AMX) S ≤ 4)”.

And the “Susceptibility to AMX” value [32]?
Its value is “S (Amoxicillin (AMX) S ≤ 4)”.

And the “Susceptibility to AMX” value [33]?
The value was “S (Amoxicillin (AMX) S ≤ 4)”.

And the “Susceptibility to AMX” value [34]?
The value was “S (Amoxicillin (AMX) S ≤ 4)”.

What about the “Susceptibility to AMX” value [35] of the same compound?
Its value is “S (Amoxicillin (AMX) S ≤ 4)”.

What about the “Susceptibility to AMX” value [36] of the same compound?
The value was “S (Amoxicillin (AMX) S ≤ 4)”.

And the “Susceptibility to AMX” value [37]?
The value was “R (R > 16)”.

What about the “Susceptibility to AMX” value [38] of the same compound?
The value was “R (R > 16)”.

What about the “Susceptibility to AMX” value [39] of the same compound?
The value was “R (R > 16)”.

What about the “Susceptibility to AMX” value [40] of the same compound?
Its value is “S (Amoxicillin (AMX) S ≤ 4)”.

And the “Susceptibility to AMX” value [41]?
Its value is “R (R > 16)”.

What about the “Susceptibility to AMX” value [42] of the same compound?
Its value is “R (R > 16)”.

What about the “Susceptibility to AMX” value [43] of the same compound?
Its value is “R (R > 16)”.

What about the “Susceptibility to AMX” value [44] of the same compound?
The value was “R (R > 16)”.

What about the “Susceptibility to AMX” value [45] of the same compound?
The value was “S (Amoxicillin (AMX) S ≤ 4)”.

What about the “Susceptibility to AMX” value [46] of the same compound?
Its value is “S (Amoxicillin (AMX) S ≤ 4)”.

And the “Susceptibility to AMX” value [47]?
Its value is “S (Amoxicillin (AMX) S ≤ 4)”.

What about the “Susceptibility to AMX” value [48] of the same compound?
Its value is “S (Amoxicillin (AMX) S ≤ 4)”.

And the “Susceptibility to AMX” value [49]?
Its value is “S (Amoxicillin (AMX) S ≤ 4)”.

And the “Susceptibility to AMX” value [50]?
The value was “S (Amoxicillin (AMX) S ≤ 4)”.

What about the “Susceptibility to AMX” value [51] of the same compound?
The value was “S (Amoxicillin (AMX) S ≤ 4)”.

And the “Susceptibility to AMX” value [52]?
The value was “S (Amoxicillin (AMX) S ≤ 4)”.

What about the “Susceptibility to AMX” value [53] of the same compound?
Its value is “S (Amoxicillin (AMX) S ≤ 4)”.
